In one test the test system is E. coli flagellin (fliC). In words: microbe, parasite or virus in culture. The format is cell-based. Particulars: Escherichia coli, 6 h; for activity at 5 µM: read-out: E. coli flagellin production, Relative Level vs. Control, 5 μM; for activity at 25 µM: read-out: E. coli flagellin production, Relative Level vs. Control, 25 μM.
The test system of the next test is S. epidermis biofilm. Kind of test: S. epidermis biofilm inhibition, optical density, test/control. Particulars: growth of biofilm test/control by optical density; for activity at 5 µM: read-out: S. epidermis Biofilm inhibition 5 μM vs. (−) Control, 5 μM; for activity at 50 µM: read-out: S. epidermis Biofilm inhibition 50 μM vs. (−) Control, 50 μM.
For another test, the system named is S. aureus biofilm. In words: S. aureus biofilm inhibition, optical density, test/control. The format is cell-based, Staphylococcus aureus. Particulars: Staphylococcus aureus, growth of biofilm test/control by optical density.
The subject of the next test is S. aureus. In words: S. aureus growth inhibition, optical density, test/control. The format is cell-based, Staphylococcus aureus. Conditions: Staphylococcus aureus, growth of bacteria test/control by optical density.
The mark [1] stands for this setting: 5 μM, read-out: S. aureus Biofilm Inhibition 5 μM vs. (−) Control.
Where [2] appears, read: 50 μM, read-out: S. aureus Biofilm Inhibition 50 μM vs. (−) Control.
Where [3] appears, read: read-out: S. aureus Biofilm Inhibition 5 μM vs. (−) Control, 5 μM.

Counter-ions that a name gives are not always drawn. Like-named read-outs stand apart in the source and are kept apart here.

As for `COc1ccc2c(c1)CC(C)(C)c1c(OC)nc(SCC(F)(F)F)nc1-2` [IVG-00607-00A01], in the test with E. coli flagellin (fliC), the activity at 5 µM came out at 63.4% and the activity at 25 µM came out at 27.5%.

On to `C=CCn1c(SCCOC)nc2c(c1=O)C1(CCN(C(=O)Nc3ccccc3)CC1)Cc1cc(OC)ccc1-2` [CCG-211971, 3-allyl-8-methoxy-2-((2-methoxyethyl)thio)-4-oxo-N-phenyl-4,6-dihydro-3H-spiro[benzo[h]quinazoline-5,4′-piperidine]-1′-carboxamide], for which, in the test with S. epidermis biofilm (Staphylococcus epidermidis), the activity at 5 µM came to 125% and the activity at 50 µM was determined as 69%.

With `COc1ccc2c(c1)CC(C)(C)c1c-2nc(NCC(F)(F)F)n(C)c1=O` [IVG-00611-00A01], in the test with E. coli flagellin (fliC), the activity at 5 µM came to 19.6% and the activity at 25 µM was determined as 13.6%.

Regarding `COc1ccc2c(c1)CC(C)(C)c1c-2nc(SCC(F)(F)F)[nH]c1=O` [IVG-00601-00A01], in the test on E. coli flagellin (fliC), the activity at 5 µM is 85.3% and the activity at 25 µM worked out at 3.96%.

In the case of `C=CCn1c(SCCOC)nc2c(c1=O)C1(CCN(C(=O)NC)CC1)Cc1cc(OC)ccc1-2` [CCG-211970, 3-allyl-8-methoxy-2-((2-methoxyethyl)thio)-N-methyl-4-oxo-4,6-dihydro-3H-spiro[benzo[h]quinazoline-5,4′-piperidine]-1′-carboxamide], the activity at 5 µM in the test with S. aureus biofilm (setting [1]) is 69%; in the test on S. epidermis biofilm (Staphylococcus epidermidis) it was 79%. The figures for the activity at 50 µM in the test with S. aureus biofilm (setting [2]) and in the test on S. epidermis biofilm (Staphylococcus epidermidis) were 58% and 67%, respectively.

In the case of `C=CCn1c(SCCOC)nc2c(c1=O)C1(CCN(C(=O)OC(C)(C)C)CC1)Cc1cc(OC)ccc1-2` [CCG-206660, tert-butyl 3-allyl-8-methoxy-2-((2-methoxyethyl)thio)-4-oxo-4,6-dihydro-3H-spiro[benzo[h]quinazoline-5,4′-piperidine]-1′-carboxylate], the activity at 5 µM in the test with S. aureus biofilm (setting [1]) worked out at 46%; in the test with S. epidermis biofilm (Staphylococcus epidermidis), 71.5%. Besides, the activity at 50 µM in the test on S. aureus biofilm (setting [2]) is 60.1%; with S. epidermis biofilm (Staphylococcus epidermidis) it was 64.3%.

`COc1ccc2c(c1)CC1(CCNCC1)c1c(OCC#N)nc(SCC#N)nc1-2` [CCG-212015, 2-((4-(cyanomethoxy)-8-methoxy-6H-spiro[benzo[h]quinazoline-5,4′-piperidin]-2-yl)thio)acetonitrile]: the activity at 5 µM with S. aureus biofilm (setting [1]) is 94%; in the test on S. epidermis biofilm (Staphylococcus epidermidis) it was 93%. The values for the activity at 50 µM with S. aureus biofilm (setting [2]) and in the test on S. epidermis biofilm (Staphylococcus epidermidis) were 33% and 48%, respectively.

Take `C=CCn1c(SCCOC)nc2c(c1=O)C1(CCN(Cc3ccccc3)CC1)Cc1cc(OC)ccc1-2` [CCG-208982, 3-allyl-1′-benzyl-8-methoxy-2-((2-methoxyethyl)thio)-3H-spiro[benzo[h]quinazoline-5,4′-piperidin]-4(6H)-one]: the activity at 5 µM in the test on S. aureus biofilm (setting [1]) was determined as 76.5%; in the test on S. epidermis biofilm (Staphylococcus epidermidis) it was 98.7%. For the same molecule, the activity at 50 µM came to 31.9% in the test on S. aureus biofilm (setting [2]) and 66% in the test on S. epidermis biofilm (Staphylococcus epidermidis).

Take `COc1ccc2c(c1)CC(C)(C)c1c-2nc(N(C)CCO)n(C)c1=O` [IVG-00612-00A01]: in the test on E. coli flagellin (fliC), the activity at 5 µM came out at 18.1% and the activity at 25 µM worked out at 12.9%.

`CCSc1nc2c(c(=O)n1C)C(C)(C)Cc1ccc(OC)cc1-2` [CCG-206353]: in the test on S. aureus biofilm, the activity at 10 µM is 49.4%. In addition, the activity at 100 µM was 32.3% with S. aureus biofilm; 92.1% in the test on S. aureus; 34.7% in the test on S. epidermis biofilm (Staphylococcus epidermidis, read-out: S. epidermis Biofilm inhibition 100 μM vs. (−) Control, 100 μM). Further, the “S. epidermis Biofilm inhibition 10 μM vs. (−) Control” value with S. epidermis biofilm was found to be 1.053.

On to `C=CCn1c(SCCOC)nc2c(c1=O)C1(CCN(C(=O)OC(C)(C)C)C1)Cc1ccccc1-2` (stereo not shown) [CCG-208860, tert-butyl 3-allyl-2-((2-methoxyethyl)thio)-4-oxo-4,6-dihydro-3H-spiro[benzo[h]quinazoline-5,3′-pyrrolidine]-1′-carboxylate], for which the activity at 5 µM with S. aureus biofilm (setting [1]) turned out to be 70.4%; in the test with S. epidermis biofilm (Staphylococcus epidermidis), 85%. For the same molecule, the activity at 50 µM in the test on S. aureus biofilm (setting [2]) was determined as 46.4%; in the test on S. epidermis biofilm (Staphylococcus epidermidis) it was 79.8%.

`COc1ccc2c(c1)CC(C)(C)c1c-2nc(SCC(F)(F)F)n(C)c1=O` [IV501]: in the test with E. coli flagellin (fliC), the activity at 5 µM came out at 36.2% and the activity at 25 µM amounted to 47.5%.

With `COCCSc1nc2c(c(=O)n1CCCO)C(C)(C)Cc1ccccc1-2` [CCG-205390, 3-(3-Hydroxypropyl)-2-((2-methoxyethyl)thio)-5,5-dimethyl-5,6-dihydrobenzo[h]quinazolin-4(3H)-one], the activity at 100 µM was determined as 52.5% in the test with S. aureus biofilm and 89.1% in the test with S. aureus. Further, the “S. epidermis Biofilm inhibition 10 μM vs. (−) Control” value in the test with S. epidermis biofilm is 0.921.

For the molecule `COc1ccc2c(c1)CC1(CCNCC1)c1c(OC)nc(SCC#N)nc1-2` [CCG-212014, 2((4,8-dimethoxy-6H-spiro[benzo[h]quinazoline-5,4′-piperidin]-2-yl)thio)acetonitrile], the activity at 5 µM with S. aureus biofilm (setting [1]) was 77%; in the test with S. epidermis biofilm (Staphylococcus epidermidis) it was 105%. Also, the activity at 50 µM turned out to be 52% in the test with S. aureus biofilm (setting [2]) and 63% in the test with S. epidermis biofilm (Staphylococcus epidermidis).

Turning to `COc1ccc2c(c1)CC(C)(C)c1c-2nc(S)n(C)c1=O` [IVG-00608-00A01], in the test with E. coli flagellin (fliC), the activity at 5 µM amounted to 82.8% and the activity at 25 µM stood at 48.9%.

`C=CCn1c(SCCOC)nc2c(c1=O)CC(C)c1ccccc1-2` (stereo not shown) [CCG-203574]: the activity at 100 µM in the test on S. aureus biofilm came to 46.5%; in the test on S. aureus it was 73.8%.

On to `C=CCn1c(SCC)nc2c(c1=O)C(C)(C)Cc1cc(OCC#N)ccc1-2` [CCG-206178], for which, in the test with S. aureus biofilm, the activity at 10 µM stood at 56.5%. In addition, in the test with S. aureus, the activity at 100 µM is 104%.

With `C=CCn1c([S+]([O-])CC)nc2c(c1=O)C(C)(C)Cc1ccc(OC)cc1-2` (stereo not shown) [CCG-206355], the activity at 100 µM in the test on S. aureus biofilm worked out at 74.7%; with S. aureus, 96%.

On to `C=CCn1c(OCC)nc2c(c1=O)C(C)(C)Cc1ccccc1-2` [CCG-203803], for which the activity at 100 µM in the test with S. aureus biofilm was 76.8%; in the test with S. aureus it was 81.9%.

Regarding `C=CCn1c(SCC)nc2c(c1=O)C(C)(C)Cc1c(O)cccc1-2` [CCG-203631], the values for the activity at 100 µM with S. aureus biofilm and in the test on S. aureus were 31.1% and 76.7%, respectively.

Regarding `C=CCn1c(SCC)nc2c(c1=O)C(C)(C)Cc1c(OCCOC)cccc1-2` [CCG-203633], the activity at 100 µM in the test on S. aureus biofilm is 54%; in the test with S. aureus it was 76.2%.

Turning to `CCNc1nc2c(c(=O)n1C)C(C)(C)Cc1cc(OC)ccc1-2` [IVG-00613-00A01], in the test on E. coli flagellin (fliC), the activity at 5 µM was found to be 34.2% and the activity at 25 µM amounted to 13.9%.

Regarding `COCCSc1nc(OCC2OCCO2)c2c(n1)-c1ccccc1CC2(C)C` [CCG-203627], the results for the activity at 100 µM with S. aureus biofilm and with S. aureus were 49.6% and 80.6%, respectively.

As for `C=CCn1c(SCCO)nc2c(c1=O)C(C)(C)Cc1ccccc1-2` [CCG-203041], the values for the activity at 100 µM with S. aureus biofilm and in the test with S. aureus were 47.7% and 89.7%, respectively.

Take `C=CCn1c(SCCOC)nc2c(c1=O)C1(CCN(C=O)CC1)Cc1ccccc1-2` [CCG-206234, 3-Allyl-2-((2-methoxyethyl)thio)-4-oxo-4,6-dihydro-3H-spiro[benzo[h]quinazoline-5,4′-piperidine]-1′-carbaldehyde]: in the test on S. aureus biofilm, the activity at 10 µM worked out at 101% and the activity at 100 µM was 65%. For the same molecule, the activity at 100 µM in the test with S. aureus turned out to be 99%.

Turning to `C=CCn1c(SCc2cccc(OC)c2)nc2c(c1=O)C1(CCCCC1)Cc1ccccc1-2` [CCG-102485], the figures for the activity at 100 µM in the test on S. aureus biofilm and in the test with S. aureus were 49.5% and 114%, respectively.

For the molecule `C=CCn1c(SCC)nc2c(c1=O)C(C)(C)Cc1c(OC)cccc1-2` [CCG-203629], the activity at 100 µM came out at 35.1% with S. aureus biofilm and 66.7% in the test on S. aureus.

For `C=CCn1c(SCC)nc2c(c1=O)C1(CCNCC1)Cc1cc(OC)ccc1-2` [CCG-206664, 3-allyl-2-(ethylthio)-8-methoxy-3H-spiro[benzo[h]quinazoline-5,4′-piperidin]-4(6H)-one hydrochloride], the activity at 5 µM with S. aureus biofilm (setting [3]) is 89%; in the test on S. epidermis biofilm (Staphylococcus epidermidis) it was 87.7%. Moreover, the activity at 50 µM with S. aureus biofilm (read-out: S. aureus Biofilm Inhibition 50 μM vs. (−) Control, 50 μM) is 2.8%.

Regarding `C=CCn1c(SCc2ccc(NC(C)=O)cc2)nc2c(c1=O)C1(CCCCC1)Cc1ccccc1-2` [CCG-102491], the activity at 100 µM with S. aureus biofilm turned out to be 75%; with S. aureus it was 84.8%.

For `COc1ccc2c(c1)CC(C)(C)c1c-2nc(NCCO)n(C)c1=O` [IVG-00610-00A01], in the test with E. coli flagellin (fliC), the activity at 5 µM stood at 31.6% and the activity at 25 µM is 8.83%.

For the molecule `C=CCn1c(SCC)nc2c(c1=O)C1(CCN(C(=O)OC(C)(C)C)CC1)Cc1cc(OC)ccc1-2` [CCG-206663, tert-butyl 3-allyl-2-(ethylthio)-8-methoxy-4-oxo-4,6-dihydro-3H-spiro[benzo[h]quinazoline-5,4′-piperidine]-1′-carboxylate], the activity at 5 µM in the test on S. aureus biofilm (setting [1]) stood at 49.9%; with S. epidermis biofilm (Staphylococcus epidermidis) it was 73.4%. In addition, the activity at 50 µM in the test on S. epidermis biofilm (Staphylococcus epidermidis) was 76.1%.

Turning to `COc1ccc2c(c1)CC(C)(C)c1c-2nc(OCC(F)(F)F)n(C)c1=O` [IVG-00614-00A01], in the test with E. coli flagellin (fliC), the activity at 5 µM worked out at 24.4% and the activity at 25 µM worked out at 26.2%.

Turning to `C=CCn1c(SCCOC)nc2c(c1=O)C1(CCNCC1)Cc1cc(OC)ccc1-2` [CCG-206661, 3-allyl-8-methoxy-2-((2-methoxyethyl)thio)-3H-spiro[benzo[h]quinazoline-5,4′-piperidin]-4(6H)-one hydrochloride], the activity at 5 µM in the test on S. aureus biofilm (setting [3]) amounted to 86.9%; with S. epidermis biofilm (Staphylococcus epidermidis), 98.7%.
